Data set [1] is described as follows: Stress tests: open storage at room temperature over saturated salt solutions at different relative humidities, analysis by PXRD. The following applies: for physical form found by PXRD after stress test: open storage. Format: physicochemical. Here is the method:
Powder X-ray diffraction (PXRD) was performed with a PANalytical X'Pert PRO diffractometer equipped with a theta/theta coupled goniometer in transmission geometry, Cu-Kalpha1,2 radiation (wavelength 0.15419 nm) with a focusing mirror and a solid state PIXcel detector. Diffractograms were recorded at a tube voltage of 45 kV and a tube current of 40 mA, applying a stepsize of 0.013° 2-Theta with 40 s per step (255 channels) in the angular range of 2° to 40° 2-Theta at ambient conditions. A typical precision of the 2-Theta values is in the range of ±0.2° 2-Theta. Thus, the diffraction peak of substantially pure form C that appears for example at 6.5° 2-Theta can appear between 6.3 and 6.7° 2-Theta on most X-ray diffractometers under standard conditions.
Crystalline form C (prepared according to example 1 herein) was open stored at room temperature in desiccators over saturated salt solutions generating different relative humidities.

A short description of data set [2]: Gravimetric moisture sorption. Format: physicochemical. The following applies: relative humidity 0 to 60%, (25.0±0.1) °C. How it is done:
Moisture sorption isotherms were recorded with an SPSx-1μ moisture sorption analyzer (ProUmid, Ulm). The measurement cycle was started at ambient relative humidity (RH) of 30% and first decreased to 3% RH and then to 0% RH. […] The time per step was set to a minimum of 2 hours and a maximum of 6 hours. If an equilibrium condition with a constant mass of ±0.01% within 1 hour was reached before the maximum time for all examined samples the sequential humidity step was applied before the maximum time of 6 hours. If no equilibrium was achieved the consecutive humidity step was applied after the maximum time of 6 hours. The temperature was 25±0.1° C.

“Also recorded” adds a separate entry of the source.

As to `NC(=O)[C@@H]1CC[C@@H]2CN1C(=O)N2OS(=O)(=O)O.[Na]` [form C, sodium salt of (1R,2S,5R)-7-oxo-6-sulfooxy-1,6-diazabicyclo[3.2.1]octane-2-carboxamide], the “relative humidity at or below which no transformation into any other physical form occurs” value in data set [1] is given as no more than 55%. The “physical form found by PXRD after stress test” value was “substantially pure form C after 9 days and after” in data set [1] (45% relative humidity (K2CO3), 9 days); “remains stable; also recorded: substantially pure form C after 9 days and after” in data set [1] (45% relative humidity (K2CO3), 277 days); “remains stable; also recorded: substantially pure form C after 9 days” in data set [1] (55% relative humidity (Ca(NO3)2 x 4H2O), 9 days); “traces of form A detectable after 3 days” in data set [1] (63% relative humidity (NaBr), 3 days); “mainly form A with traces of form C after” in data set [1] (75% relative humidity (NaCl), 3 days); “form A after one day” in data set [1] (86% relative humidity (KCl), one day). The “weight change, based on the weight of crystalline form C” value in data set [2] is reported as “not more than 0.5%”.

The values above are taken from patent US10265326B2, “Form C of avibactam sodium” (Sandoz AG, priority 2015, dated 2019).
